Square brackets hold non-standard residues; d marks the D form. Ends that are not written are not given here. pY = N[C@@H](Cc1ccc(OP(=O)(O)O)cc1)C(=O)O
What was measured:
Stat91-DNA complex = molecular target: T1, Stat91-DNA complex (Homo sapiens, UniProt P42224); assay: Formation of Stat91-DNA complex in the presence of phosphoamino acids; type: biochemical; settings: 10 mM
T1 sequence (P42224 1-750): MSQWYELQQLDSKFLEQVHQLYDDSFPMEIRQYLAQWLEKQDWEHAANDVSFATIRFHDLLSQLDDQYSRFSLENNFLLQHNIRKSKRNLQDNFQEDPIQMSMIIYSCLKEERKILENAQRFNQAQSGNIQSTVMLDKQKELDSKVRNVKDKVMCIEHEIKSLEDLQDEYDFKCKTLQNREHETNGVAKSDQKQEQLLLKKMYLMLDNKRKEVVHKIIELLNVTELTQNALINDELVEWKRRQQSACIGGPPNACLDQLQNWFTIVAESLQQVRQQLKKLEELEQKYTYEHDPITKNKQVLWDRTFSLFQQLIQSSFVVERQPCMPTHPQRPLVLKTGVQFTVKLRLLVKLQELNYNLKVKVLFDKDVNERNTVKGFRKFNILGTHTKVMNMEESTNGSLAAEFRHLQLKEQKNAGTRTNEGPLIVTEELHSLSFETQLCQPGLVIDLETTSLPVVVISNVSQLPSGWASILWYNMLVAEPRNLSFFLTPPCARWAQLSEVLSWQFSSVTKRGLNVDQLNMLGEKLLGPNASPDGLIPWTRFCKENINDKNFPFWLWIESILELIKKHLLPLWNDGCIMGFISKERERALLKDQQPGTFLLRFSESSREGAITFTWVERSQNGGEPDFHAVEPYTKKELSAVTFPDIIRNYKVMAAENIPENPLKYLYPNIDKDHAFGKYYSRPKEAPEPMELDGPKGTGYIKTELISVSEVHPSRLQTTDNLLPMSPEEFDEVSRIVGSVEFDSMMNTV
Method: (§1) Gel Mobility Shift Assays. Gel mobility shift assays were carried out as described (34). An oligonucleotide corresponding to the GAS element from the human FcγRI receptor gene (Pearse et al. 1993) was synthesized and used for gel mobility shift assays. The oligonucleotide has the following sequence: 5′[…]3′ (SEQ. ID NO:17).
The Stat91 sequence contains an SH2 domain (amino acids 569 to 700, see discussion below), and we knew that Tyr-701 was the single phosphorylated tyrosine residue required for DNA binding activity (supra, 45). […] We therefore sought evidence that the dimerization of Stat91 involved specific SH2-phosphotyrosine interaction using the dissociation and reassociation assay.

[1] = system: ISGF-3 formation / IFN-α induced transcription; settings: cited from earlier work
[2] = system: Stat84 and Stat91L homodimers; assay: Dissociation-reassociation analysis (gel mobility shift with GAS probe); type: biochemical, human; settings: for dissociation of the dimers and block of formation of DNA protein complexes: peptide 160 μM
Method: as §1
Dissociation-reassociation Analysis. Extracts were incubated with various concentrations of peptides or fusion proteins, and ^32P-labeled GAS oligonucleotide probe in gel shift buffer was then added to promote the formation of protein-DNA complex followed by mobility shift analysis.
Dimerization of Stat91 Involves Phosphoryrosyl Peptide and SH2 Interactions. Based on the results described above, we devised a dissociation-reassociation assay in the absence of guanidium hydrochloride to explore the possible nature of interactions involved in dimer formation (FIG. 20). When the short and the long forms of a homodimer are mixed with a dissociating agent (e.g., a peptide containing the putative dimerization domain), the subunits of the dimer should dissociate (in a concentration dependent fashion) due to the interaction of the agent with the dimerization domain(s) of the protein. When a specific DNA probe is subsequently added to the mixture to drive the formation of a stable protein-DNA complex, the detection of any reassociated or remaining dimers can be assayed. In the presence of low concentration of the dissociating agent, addition of DNA to form the stable protein-DNA complex should lead to the detection of homodimers as well as heterodimers. At high concentration of the dissociating agent, subunits of the dimer may not be able to re-form and no DNA-protein complexes would be detected (FIG. 20).

Molecule: N[C@@H](COP(=O)(O)O)C(=O)O [phosphoserine]
- prevention of formation of Stat91-DNA complex (Stat91-DNA complex): not

Molecule: C[C@@H](OP(=O)(O)O)[C@H](N)C(=O)O [phosphothreonine]
- prevention of formation of Stat91-DNA complex (Stat91-DNA complex): not

Molecule: N[C@@H](Cc1ccc(OP(=O)(O)O)cc1)C(=O)O [phosphotyrosine]
- prevention of formation of Stat91-DNA complex (Stat91-DNA complex): could prevent the formation

Molecule: CN[C@@H]1C[C@H]2O[C@@](C)([C@@H]1OC)n1c3ccccc3c3c4c(c5c6ccccc6n2c5c31)C(=O)NC4 [staurosporine]
- IFN-α induction of ISGF-3 formation [1]: blocks
- IFN-α induction of transcription [1]: blocks

Molecule: EPQY*EEIPIYL (EPQ[pY]EEIPIYL) [SrcY-p, reference compound]
- effect on Stat91 dimer formation ([2]; FIG. 21 lanes 11-13 (4, 40, 160 μM)): no effect

Molecule: GY*IKTE (G[pY]IKTE) [91Y-p]
- exchange between the subunits of Stat84 dimers and Stat91L dimers to form heterodimers ([2]; peptide 4 μM, extracts of IFN-γ-treated C84 and C91L cells): clearly promoted the exchange
- dissociation of the dimers and block of formation of DNA protein complexes [2]: dissociated the dimers and blocked the formation of DNA protein complexes

Molecule: KVNLQERRKY*LKHR (KVNLQERRK[pY]LKHR) [113Y-p]
- exchange of subunits between Stat84 and Stat91L ([2]; at concentrations similar to 91Y-p): promoted the exchange of subunits
- prevention of the gel shift bands ([2]; peptide 40 μM): prevented the gel shift bands almost completely

Molecule: LDGPKGTGYIKTELI [91Y]
- dissociation of the dimers and block of formation of DNA protein complexes [2]: not
- effect on the two gel shift bands characteristic of Stat84 or Stat91L homodimers ([2]; various concentrations of peptide (4, 40, 160 μM)): no effect

Reference: US7339039B2, “Nucleic acids encoding receptor recognition factors, and methods of use thereof” (The Rockfeller University, priority 1992, dated 2008)
